Experimental findings from ChEMBL document CHEMBL1157885, “The discovery and structure-activity relationships of 2-(piperidin-3-yl)-1H-benzimidazoles as selective, CNS penetrating H1-antihistamines for insomnia” (Bioorg Med Chem Lett, 2010) are described below.

One series concerns the target CYP3A4 (Homo sapiens, UniProt P08684). In words: (§1) Inhibition of CYP3A4. Format: ADME.
In series [1] the target is T1, Muscarinic acetylcholine receptor M1 (Homo sapiens, UniProt P11229).
T1 sequence (P11229 whole entry): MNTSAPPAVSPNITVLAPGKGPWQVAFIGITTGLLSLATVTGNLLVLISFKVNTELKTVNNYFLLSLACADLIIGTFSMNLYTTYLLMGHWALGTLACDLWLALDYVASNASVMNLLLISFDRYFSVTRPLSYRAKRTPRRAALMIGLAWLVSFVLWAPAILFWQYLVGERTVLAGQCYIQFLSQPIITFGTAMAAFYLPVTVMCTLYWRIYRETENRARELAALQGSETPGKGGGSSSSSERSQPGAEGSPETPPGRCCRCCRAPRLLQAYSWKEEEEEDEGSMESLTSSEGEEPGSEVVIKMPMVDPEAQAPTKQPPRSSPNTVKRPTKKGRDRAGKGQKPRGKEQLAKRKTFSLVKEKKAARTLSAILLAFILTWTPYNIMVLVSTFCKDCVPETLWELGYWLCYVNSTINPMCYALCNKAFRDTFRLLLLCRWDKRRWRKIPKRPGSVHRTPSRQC
As to the kind of experiment: Displacement of [3H]N-methyl Scopolamine from human muscarinic M1 receptor expressed in CHO Flp-In cells by liquid scintillation counting. Format: cell-based. Background: Displacement assays read how much labelled ligand stays bound in the presence of the test substance.

Series [2] addresses T2, Voltage-gated inwardly rectifying potassium channel KCNH2 (Homo sapiens, UniProt Q12809). In words: Displacement of [3H]dofetolide from human ERG channel expressed in HEK293 cells by liquid scintillation counting. It is filed as cell-based.
The target of a further series is Cytochrome P450 3A4 (Homo sapiens, UniProt P08684). Described as §1. Format: ADME.
Chain of Cytochrome P450 3A4 (P08684 whole entry): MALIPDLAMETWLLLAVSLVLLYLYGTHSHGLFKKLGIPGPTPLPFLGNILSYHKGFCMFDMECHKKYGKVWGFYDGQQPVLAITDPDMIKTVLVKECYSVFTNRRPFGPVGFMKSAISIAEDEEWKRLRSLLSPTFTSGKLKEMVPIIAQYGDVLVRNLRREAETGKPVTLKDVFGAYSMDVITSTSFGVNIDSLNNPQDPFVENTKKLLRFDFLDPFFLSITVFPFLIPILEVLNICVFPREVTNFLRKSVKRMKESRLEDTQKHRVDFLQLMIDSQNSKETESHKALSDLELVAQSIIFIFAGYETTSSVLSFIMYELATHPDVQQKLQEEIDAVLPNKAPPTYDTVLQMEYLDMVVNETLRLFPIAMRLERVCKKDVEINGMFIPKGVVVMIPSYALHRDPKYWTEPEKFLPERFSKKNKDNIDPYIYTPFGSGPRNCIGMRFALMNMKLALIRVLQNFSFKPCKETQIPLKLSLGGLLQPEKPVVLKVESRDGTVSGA
The target in the next series is hERG (KCNH2) (Homo sapiens, UniProt Q12809). As to the kind of experiment: Inhibition of human ERG channel at 10 uM by patch clamp assay.
Chain of hERG (KCNH2) (Q12809 whole entry): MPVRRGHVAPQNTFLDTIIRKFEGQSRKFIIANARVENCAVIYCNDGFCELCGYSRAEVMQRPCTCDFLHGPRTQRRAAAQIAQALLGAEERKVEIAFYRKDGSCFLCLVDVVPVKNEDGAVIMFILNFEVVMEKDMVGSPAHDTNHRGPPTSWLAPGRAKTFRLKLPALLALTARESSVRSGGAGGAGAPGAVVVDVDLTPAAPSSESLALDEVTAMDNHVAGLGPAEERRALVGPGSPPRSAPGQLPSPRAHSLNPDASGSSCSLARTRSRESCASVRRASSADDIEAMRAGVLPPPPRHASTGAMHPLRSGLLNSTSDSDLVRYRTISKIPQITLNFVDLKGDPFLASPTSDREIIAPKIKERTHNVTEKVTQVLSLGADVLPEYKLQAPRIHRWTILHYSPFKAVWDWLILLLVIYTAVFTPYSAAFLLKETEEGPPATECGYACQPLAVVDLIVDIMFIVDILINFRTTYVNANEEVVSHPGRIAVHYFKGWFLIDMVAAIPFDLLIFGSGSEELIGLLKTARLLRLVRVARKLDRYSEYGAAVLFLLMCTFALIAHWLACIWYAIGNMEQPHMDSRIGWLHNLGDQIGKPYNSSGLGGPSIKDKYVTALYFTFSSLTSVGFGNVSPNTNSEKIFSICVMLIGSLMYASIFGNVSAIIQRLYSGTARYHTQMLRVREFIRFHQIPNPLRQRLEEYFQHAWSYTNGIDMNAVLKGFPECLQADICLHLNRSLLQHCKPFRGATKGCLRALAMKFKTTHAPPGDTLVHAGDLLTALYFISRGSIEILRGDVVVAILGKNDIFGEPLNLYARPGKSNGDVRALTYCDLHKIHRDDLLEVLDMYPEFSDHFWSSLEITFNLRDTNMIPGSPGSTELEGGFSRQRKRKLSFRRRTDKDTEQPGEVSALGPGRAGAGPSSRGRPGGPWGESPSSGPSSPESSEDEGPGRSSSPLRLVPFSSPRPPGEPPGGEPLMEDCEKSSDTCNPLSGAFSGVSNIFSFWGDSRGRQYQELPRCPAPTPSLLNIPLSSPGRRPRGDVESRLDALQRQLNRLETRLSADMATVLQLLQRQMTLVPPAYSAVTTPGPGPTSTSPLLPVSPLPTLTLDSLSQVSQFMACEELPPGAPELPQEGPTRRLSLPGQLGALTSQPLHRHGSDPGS
Series [3] is described as follows: Solubility in 0.15 M KCl buffer at pH 7.4 by potentiometric method. It is filed as physicochemical.
The next series relates to Liver microsomes. As to the kind of experiment: Metabolic stability in human liver microsomes. It is filed as ADME, Microsome. For orientation: Liver microsomes are vesicles of endoplasmic reticulum, rich in cytochrome P450 enzymes.
Series [4] concerns the target T2, Voltage-gated inwardly rectifying potassium channel KCNH2. As to the kind of experiment: Inhibition of human ERG channel by electrophysiology assay.
The next series concerns the target Cytochrome P450 2D6 (Homo sapiens, UniProt P10635). As to the kind of experiment: Inhibition of CYP2D6. It is filed as ADME.
The next series has as its target Histamine H1 receptor (Homo sapiens, UniProt P35367). In words: Displacement of [3H]pyrilamine from human histamine H1 receptor expressed in CHO Flp-In cells by liquid scintillation counting. It is filed as cell-based.
In series [5] the target is T2, Voltage-gated inwardly rectifying potassium channel KCNH2. As to the kind of experiment: Inhibition of human ERG channel by patch clamp assay. (The patch-clamp technique gives a direct electrical read-out from membranes.)

T2 sequence (Q12809 whole entry): as above
Chain of Cytochrome P450 2D6 (P10635 whole entry): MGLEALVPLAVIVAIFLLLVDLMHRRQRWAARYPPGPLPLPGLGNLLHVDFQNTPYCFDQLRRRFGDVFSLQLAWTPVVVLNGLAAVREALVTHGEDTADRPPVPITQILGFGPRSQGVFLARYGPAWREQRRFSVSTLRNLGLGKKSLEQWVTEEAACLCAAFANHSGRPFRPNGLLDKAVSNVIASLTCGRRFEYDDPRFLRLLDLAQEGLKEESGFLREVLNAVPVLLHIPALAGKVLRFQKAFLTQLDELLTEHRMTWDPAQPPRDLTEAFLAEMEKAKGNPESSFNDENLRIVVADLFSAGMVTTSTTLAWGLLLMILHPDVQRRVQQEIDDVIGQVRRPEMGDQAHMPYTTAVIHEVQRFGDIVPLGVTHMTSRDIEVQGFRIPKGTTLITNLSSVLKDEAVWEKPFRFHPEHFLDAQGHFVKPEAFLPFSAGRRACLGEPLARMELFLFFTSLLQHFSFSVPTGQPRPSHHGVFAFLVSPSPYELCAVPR
Chain of Histamine H1 receptor (P35367 whole entry): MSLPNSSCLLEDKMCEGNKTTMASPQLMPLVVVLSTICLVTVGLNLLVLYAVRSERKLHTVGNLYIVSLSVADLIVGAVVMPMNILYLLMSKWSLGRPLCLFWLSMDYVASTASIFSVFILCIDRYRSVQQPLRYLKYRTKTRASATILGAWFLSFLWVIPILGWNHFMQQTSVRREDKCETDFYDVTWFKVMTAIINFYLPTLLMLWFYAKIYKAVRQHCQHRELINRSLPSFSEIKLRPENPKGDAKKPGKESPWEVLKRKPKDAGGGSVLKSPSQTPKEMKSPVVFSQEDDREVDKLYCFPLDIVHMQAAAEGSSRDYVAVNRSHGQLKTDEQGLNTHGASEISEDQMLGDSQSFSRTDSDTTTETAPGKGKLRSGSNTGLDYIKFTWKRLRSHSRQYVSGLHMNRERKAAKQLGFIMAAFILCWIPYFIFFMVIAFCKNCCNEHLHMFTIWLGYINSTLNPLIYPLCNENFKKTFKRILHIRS
Chain of CYP3A4 (P08684 whole entry): as the sequence (P08684 whole entry) above

The term IC50 denotes the concentration at which inhibition is half-maximal. Low readings indicate greater potency, high ones weaker potency. A word on the Ki: it is the equilibrium dissociation constant of an inhibitor or competing ligand from its target. Higher therefore signals lower affinity. The compound `CN(CC1CCOCC1)C1CCN(c2nc3ccccc3n2Cc2ccc(F)cc2)CC1` showed an IC50 against CYP3A4 of more than 5 µM. The compound also registered a Ki in series [1] of 4.8 µM.

As for `Cc1csc(Cn2c(C3CCCN(C4CCOCC4)C3)nc3ccccc32)n1` (configuration not stated), the Ki in [2] was more than 3 µM. Further, the IC50 against Cytochrome P450 3A4 was more than 5 µM.

As for `COc1ccc(Cn2c(C3CCCN(C(C)C)C3)nc3ccccc32)cc1` (configuration not stated), affinity in [2] was put at a Ki of 2.65 µM. The compound also registered an IC50 at Cytochrome P450 3A4 of more than 5 µM.

The compound `Cc1csc(Cn2c(C3CCCN(C)C3)nc3ccccc32)n1` (configuration not stated) returned an inhibition constant Ki in series [2] of more than 10 µM. The IC50 against Cytochrome P450 3A4 was more than 5 µM.

On Cytochrome P450 3A4, `CCOCCn1c(C2CCCN(C)C2)nc2ccccc21` (configuration not stated) gave a concentration for half-maximal inhibition (IC50) of more than 5 µM.

The compound `Cc1csc(Cn2c(C3CCCN(C4CCCCC4)C3)nc3ccccc32)n1` (configuration not stated) came in with a Ki in series [2] of 1.18 µM. This compound came in with an IC50 at Cytochrome P450 3A4 of more than 5 µM.

In [2], `COc1ccc(Cn2c(C3CCCN(C4CCOCC4)C3)nc3ccccc32)cc1` (configuration not stated) yielded a Ki of more than 10 µM. Further, the IC50 at Cytochrome P450 3A4 was more than 5 µM.

`CN1CCCC(c2nc3ccccc3n2CC2CCCO2)C1` (configuration not stated) had a Ki in series [2] of 0.638 µM. Besides, the half-maximal inhibitory concentration (IC50) at Cytochrome P450 3A4 is more than 5 µM.

Regarding `CN1CCCC(c2nc3ccccc3n2Cc2ccccn2)C1` (configuration not stated), the Ki in series [2] is more than 10 µM. At Cytochrome P450 3A4, this compound came in with an IC50 of more than 5 µM.

A word on the inhibition: it is how much of the control response was suppressed. In the case of `CN1CCC[C@@H](c2nc3ccccc3n2Cc2ccccn2)C1`, in series [2], the affinity, expressed as Ki, was 10.3 µM. For the same compound, the inhibition at 10 µM at hERG (KCNH2) was found to be 39%. The “inhibition (INH)” value against Cytochrome P450 3A4 was “Not Active”.

The term solubility denotes the dissolved amount per volume that the medium holds. Lower therefore signals little dissolved substance. The compound `Cc1cnn(C2CCN(c3nc4ccccc4n3Cc3ccc(F)cc3)CC2)c1` gave a solubility in [3] of less than 10 µg/mL.

Take `COc1ccc(Cn2c(N3CC[C@@H](N(C)C)C3)nc3ccccc32)cc1`: the Stability entry in the series on Liver microsomes is “Stable”. In addition, the results for the IC50 (in series [4]; on Cytochrome P450 3A4; at Cytochrome P450 2D6) were 0.233 µM, more than 5 µM and more than 10 µM, respectively. Besides, the Ki in [1] was determined as 2.5 µM; on Histamine H1 receptor it was 0.0084 µM.

Consider `CC(C)N1CCCC(c2nc3ccccc3n2Cc2ccc(F)cc2)C1` (configuration not stated), for which the Ki in [2] was found to be 1.37 µM. Besides, on Cytochrome P450 3A4, the IC50 was more than 5 µM.

`Fc1ccc(Cn2c(C3CCCN(C4CCCCC4)C3)nc3ccccc32)cc1` (configuration not stated): the affinity in [2], expressed as Ki, was 0.926 µM. The compound also registered an IC50 against Cytochrome P450 3A4 of more than 5 µM.

With `CCOCCn1c(C2CCCN(C3CCOCC3)C2)nc2ccccc21` (configuration not stated), in series [2], the Ki is more than 3 µM. The compound further showed an IC50 at Cytochrome P450 3A4 of more than 5 µM.

For the compound `CCOCCn1c([C@H]2CCCN(C)C2)nc2ccccc21`, on Cytochrome P450 3A4, the “inhibition (INH)” value is “Not Active”.

`CN1CCC[C@H](c2nc3ccccc3n2Cc2ccccn2)C1`: the Ki in series [2] was more than 10 µM. Further, the “inhibition (INH)” value on Cytochrome P450 3A4 is listed as “Not Active”.

As for `CCOCCn1c(N2CC[C@H](N(C)C)C2)nc2ccccc21`, in the series with Liver microsomes, the Stability entry was “Stable”. The IC50 in series [4] was 0.021 µM; on Cytochrome P450 3A4, more than 5 µM; at Cytochrome P450 2D6, more than 10 µM. Further, the Ki in series [1] was determined as 1.5 µM; on Histamine H1 receptor it was 0.0048 µM.

Turning to `COc1ccc(Cn2c(C3CCCN(C)C3)nc3ccccc32)cc1` (configuration not stated), the Ki in [2] is more than 5 µM. Moreover, at Cytochrome P450 3A4, the IC50 is more than 5 µM.

In turn, `CCOCCn1c([C@@H]2CCCN(C3CCOCC3)C2)nc2ccccc21` came in with a Ki in [2] of more than 3 µM. In addition, at Cytochrome P450 3A4, the “inhibition (INH)” value was “Not Active”. The IC50 in series [5] stood at 2.1 µM.

As for `CCOCCn1c([C@@H]2CCCN(C)C2)nc2ccccc21`, on Cytochrome P450 3A4, the “inhibition (INH)” value is reported as “Not Active”.

In turn, `COc1ccc(Cn2c(C3CCCN(C4CCCCC4)C3)nc3ccccc32)cc1` (configuration not stated) displayed a Ki in series [2] of 1.84 µM.

The compound `CCOCCn1c(C2CCCN(C3CCCCC3)C2)nc2ccccc21` (configuration not stated) had a Ki in [2] of more than 10 µM. For the same compound, the IC50 against Cytochrome P450 3A4 is more than 5 µM.

`CN1CCCC(c2nc3ccccc3n2CCOc2ccccc2)C1` (configuration not stated) gave an IC50 on Cytochrome P450 3A4 of more than 5 µM.
